Reference: ChEMBL document CHEMBL5050861 (2021)
Values after ≈ are worked out from the molar mass of the structure shown.

Key:
[1] = Inhibition of recombinant mouse GALK1 using ATP as substrate incubated for 1 hr and measured by Kinase-Glo assay
[2] = Stability of compound in rat microsomes assessed as half-life; format: ADME, Microsome
[3] = Permeability of compound by PAMPA assay; format: ADME; conditions: for Papp: read-out: permeability
[4] = Kinetic aqueous solubility of the compound; format: physicochemical; conditions: buffer; read-out: Kinetic_solubility

## CC1=C(C(=O)Nc2cc(C(=O)O)ccn2)C(c2ccc(C)cc2Cl)N=C(Nc2nc3c(o2)CCCC3)N1 (stereo not given)
[1]; read-out: IC50
  IC50: 4.32 µM
[2]
  half-life: > 30 min
[3]
  Papp: < 1.8 ×10⁻⁶ cm/s
[4]
  solubility kinetic: > 52 µg/mL

## COc1ccc2nc(NC3=NC(c4ccccc4Cl)C(C(=O)Nc4nnc(-c5cccnc5)s4)=C(C)N3)oc2c1 (stereo not given)
[1]; read-out: IC50
  IC50: 21.7 µM
[2]
  half-life: > 30 min
[3]
  Papp: < 4.4 ×10⁻⁶ cm/s
[4]
  solubility kinetic: < 1 µg/mL

## CC1=C(C(=O)Nc2ccc([N+](=O)[O-])cc2)C(c2ccccc2Cl)N=C(Nc2nc3ccccc3o2)N1 (stereo not given)
[1]; read-out: IC50
  IC50: 3.43 µM
[2]
  half-life: > 30 min
[3]
  Papp: < 7.3 ×10⁻⁶ cm/s
[4]
  solubility kinetic: < 1 µg/mL

## CC1=C(C(=O)Nc2cc(C(=O)O)ccn2)[C@H](c2ccccc2Cl)N=C(Nc2nc3ccc(F)cc3o2)N1
[1]; read-out: IC50
  IC50: 1.72 µM
[2]
  half-life: > 30 min
[3]
  Papp: < 1 ×10⁻⁶ cm/s
[4]
  solubility kinetic: 55.6 µg/mL (≈ 107 µM)

## CC1=C(C(=O)Nc2cc(C(=O)O)ccn2)C(c2ccc(-c3ccc(C)nc3)cc2Cl)N=C(Nc2nc3ccc(F)cc3o2)N1 (stereo not given)
[1]; read-out: IC50
  IC50: 1.22 µM
[2]
  half-life: > 30 min
[3]
  Papp: < 1 ×10⁻⁶ cm/s
[4]
  solubility kinetic: > 90 µg/mL

## CC1=C(C(=O)Nc2ccc(C(N)=O)cc2)C(c2ccccc2Cl)N=C(Nc2nc3ccccc3o2)N1 (stereo not given)
[1]; read-out: IC50
  IC50: 6.85 µM
[2]
  half-life: > 30 min
[3]
  Papp: < 6.3 ×10⁻⁶ cm/s
[4]
  solubility kinetic: < 1 µg/mL

## COP(=O)(OC)C1=C(C)NC(Nc2nc3ccccc3o2)=NC1c1ccccc1Cl (stereo not given)
[1]; read-out: IC50
  IC50: 13.7 µM
[2]
  half-life: 5.35 min
[3]
  permeability: 1813.86 10^-6 cm/s
[4]
  solubility kinetic: 12.2 µg/mL (≈ 27.3 µM)

## CC1=C(C(=O)NCc2cnn(C)c2)C(c2ccc(C)cc2Cl)N=C(Nc2nc3ccc(F)c(C(=O)O)c3o2)N1 (stereo not given)
[1]; read-out: IC50
  IC50: 21.7 µM
[2]
  half-life: > 30 min
[3]
  Papp: < 1 ×10⁻⁶ cm/s
[4]
  solubility kinetic: 26.3 µg/mL (≈ 47.6 µM)

## CC1=C(C(=O)Nc2ccccc2CO)C(c2ccccc2Cl)N=C(Nc2nc3ccccc3o2)N1 (stereo not given)
[1]; read-out: IC50
  IC50: 17.2 µM
[2]
  half-life: 7.71 min
[3]
  permeability: 1038.5 10^-6 cm/s
[4]
  solubility kinetic: < 1 µg/mL

## CC1=C(C(=O)Nc2nnc(-c3cccnc3)s2)C(c2ccccc2Cl)N=C(Nc2nc3cc(F)ccc3o2)N1 (stereo not given)
[1]; read-out: IC50
  IC50: 19.3 µM
[2]
  half-life: > 30 min
[3]
  Papp: < 1.5 ×10⁻⁶ cm/s
[4]
  solubility kinetic: < 1 µg/mL

## CC1=C(C(=O)Nc2ccc(Br)cc2)C(c2ccccc2Cl)N=C(Nc2nc3ccccc3o2)N1 (stereo not given)
[1]; read-out: IC50
  IC50: 15.3 µM
[2]
  half-life: > 30 min
[3]
  Papp: < 14.9 ×10⁻⁶ cm/s
[4]
  solubility kinetic: < 1 µg/mL

## CC1=C(C(=O)Nc2cc(-c3nn[nH]n3)ccn2)C(c2ccc(C)cc2Cl)N=C(Nc2nc3ccc(F)cc3o2)N1 (stereo not given)
[1]; read-out: IC50
  IC50: 9.68 µM
[2]
  half-life: > 30 min
[3]
  Papp: < 1 ×10⁻⁶ cm/s
[4]
  solubility kinetic: < 1 µg/mL

## CC1=C(C(=O)Nc2cc(C(=O)O)ccn2)C(c2ccc(C)cc2Cl)N=C(Nc2nc3cccnc3o2)N1 (stereo not given)
[1]
  IC50: Not Active
[2]
  half-life: > 30 min
[3]
  Papp: < 1 ×10⁻⁶ cm/s
[4]
  solubility kinetic: > 51 µg/mL

## CC1=C(C(=O)Nc2ccc(C(=O)O)cn2)C(c2ccccc2Cl)N=C(Nc2nc3ccc(F)cc3o2)N1 (stereo not given)
[1]; read-out: IC50
  IC50: 3.43 µM
[2]
  half-life: > 30 min
[3]
  Papp: < 1 ×10⁻⁶ cm/s
[4]
  solubility kinetic: > 77 µg/mL

## CC1=C(C(=O)Nc2cc(C(=O)O)ccn2)C(c2ccc(C(=O)O)cc2Cl)N=C(Nc2nc3ccc(F)cc3o2)N1 (stereo not given)
[1]; read-out: IC50
  IC50: 15.3 µM
[2]
  half-life: > 30 min
[3]
  Papp: < 1 ×10⁻⁶ cm/s
[4]
  solubility kinetic: > 83 µg/mL

## CC1=C(C(=O)Nc2cc(C(=O)O)ccn2)C(c2ccc(Br)cc2Cl)N=C(Nc2nc3ccc(F)cc3o2)N1 (stereo not given)
[1]; read-out: IC50
  IC50: 3.85 µM
[2]
  half-life: > 30 min
[3]
  Papp: < 1.7 ×10⁻⁶ cm/s
[4]
  solubility kinetic: 2.4 µg/mL (≈ 4 µM)

## CC1=C(C(=O)Nc2cc(C(=O)O)ccn2)C(c2cccc(N)c2Cl)N=C(Nc2nc3ccc(F)cc3o2)N1 (stereo not given)
[1]; read-out: IC50
  IC50: 17.2 µM
[2]
  half-life: > 30 min
[3]
  Papp: < 1 ×10⁻⁶ cm/s
[4]
  solubility kinetic: > 79 µg/mL

## CC1=C(C(=O)Nc2cc(C(=O)O)ccn2)C(c2ccc(C)cc2Cl)N=C(Nc2nc3ncccc3o2)N1 (stereo not given)
[1]; read-out: IC50
  IC50: 19.3 µM
[2]
  half-life: > 30 min
[3]
  Papp: < 1 ×10⁻⁶ cm/s
[4]
  solubility kinetic: > 51 µg/mL

## CC1=C(C(=O)NCc2cccnc2)C(c2ccccc2Cl)N=C(Nc2nc3ccccc3o2)N1 (stereo not given)
[1]; read-out: IC50
  IC50: 19.3 µM
[2]
  half-life: 1.58 min
[3]
  permeability: 1248.8 10^-6 cm/s
[4]
  solubility kinetic: < 1 µg/mL

## COc1ccc([C@H]2N=C(Nc3nc4cccc(N)c4o3)NC(C)=C2C(=O)Nc2cc(C(=O)O)ccn2)c(Cl)c1
[1]; read-out: IC50
  IC50: 34.4 µM
[2]
  half-life: > 30 min
[3]
  Papp: < 1 ×10⁻⁶ cm/s
[4]
  solubility kinetic: > 81 µg/mL

## CC1=C(C(=O)Nc2ccnc(C(=O)O)c2)C(c2ccccc2Cl)N=C(Nc2nc3ccccc3o2)N1 (stereo not given)
[1]; read-out: IC50
  IC50: 3.06 µM
[2]
  half-life: > 30 min
[3]
  Papp: < 1 ×10⁻⁶ cm/s
[4]
  solubility kinetic: > 74 µg/mL

## CC1=C(C(=O)NCc2ccccn2)C(c2ccccc2Cl)N=C(Nc2nc3ccccc3o2)N1 (stereo not given)
[1]; read-out: IC50
  IC50: 19.3 µM
[2]
  half-life: 6.56 min
[3]
  permeability: 1424 10^-6 cm/s
[4]
  solubility kinetic: 1.8 µg/mL (≈ 3.81 µM)

## CC1=C(C(=O)Nc2cc(C(=O)O)ccn2)[C@H](c2ccc(C)cc2Cl)N=C(Nc2nc3ccc(F)cc3o2)N1
[1]; read-out: IC50
  IC50: 1.37 µM
[2]
  half-life: > 30 min
[3]
  Papp: < 1 ×10⁻⁶ cm/s
[4]
  solubility kinetic: > 79 µg/mL

## CC1=C(C(=O)Nc2cccc(-c3cn[nH]c3)c2)C(c2ccccc2Cl)N=C(Nc2nc3ccccc3o2)N1 (stereo not given)
[1]; read-out: IC50
  IC50: 38.5 µM
[2]
  half-life: > 30 min
[3]
  Papp: < 25.4 ×10⁻⁶ cm/s
[4]
  solubility kinetic: < 1 µg/mL

## O=C1CC(C(=O)N2CCNCC2)CC2=C1C(c1ccccc1Cl)N=C(Nc1nc3ccccc3o1)N2 (stereo not given)
[1]; read-out: IC50
  IC50: 7.69 µM
[2]
  half-life: 30 min
[3]
  Papp: < 4.7 ×10⁻⁶ cm/s
[4]
  solubility kinetic: 23.9 µg/mL (≈ 47.3 µM)

## CC1=C(C(=O)Nc2nnc(-c3cccnc3)s2)C(c2ccccc2Cl)N=C(Nc2nc3ccc(F)cc3o2)N1 (stereo not given)
[1]; read-out: IC50
  IC50: 38.5 µM
[2]
  half-life: > 30 min
[3]
  Papp: < 9.9 ×10⁻⁶ cm/s
[4]
  solubility kinetic: < 1 µg/mL

## CC1=C(C(=O)Nc2cc(C(=O)O)ccn2)C(c2ccc(C)cc2Cl)N=C(Nc2nc3cnccc3o2)N1 (stereo not given)
[1]; read-out: IC50
  IC50: 6.85 µM
[2]
  half-life: > 30 min
[3]
  Papp: < 1 ×10⁻⁶ cm/s
[4]
  solubility kinetic: > 51 µg/mL

## O=C(O)CNC(=O)C1CC(=O)C2=C(C1)NC(Nc1nc3ccccc3o1)=NC2c1ccccc1Cl (stereo not given)
[1]; read-out: IC50
  IC50: 4.85 µM
[2]
  half-life: > 30 min
[3]
  Papp: < 1 ×10⁻⁶ cm/s
[4]
  solubility kinetic: 58.2 µg/mL (≈ 118 µM)

## CC1=C(C(=O)Nc2cccc(-c3nnn[nH]3)c2)C(c2ccccc2Cl)N=C(Nc2nc3ccccc3o2)N1 (stereo not given)
[1]; read-out: IC50
  IC50: 34.4 µM
[2]
  half-life: > 30 min
[3]
  Papp: 5 ×10⁻⁶ cm/s
[4]
  solubility kinetic: 47.5 µg/mL (≈ 90.3 µM)

## COc1ccc([C@@H]2N=C(Nc3nc4cccc(N)c4o3)NC(C)=C2C(=O)Nc2cc(C(=O)O)ccn2)c(Cl)c1
[1]; read-out: IC50
  IC50: 2.43 µM
[2]
  half-life: > 30 min
[3]
  Papp: < 1 ×10⁻⁶ cm/s
[4]
  solubility kinetic: > 81 µg/mL

## CCOC(=O)c1nnc(NC(=O)C2=C(C)NC(Nc3nc4ccccc4o3)=NC2c2ccccc2Cl)s1 (stereo not given)
[1]; read-out: IC50
  IC50: 10.7 µM
[2]
  half-life: 3.16 min
[3]
  Papp: < 2.7 ×10⁻⁶ cm/s
[4]
  solubility kinetic: < 1 µg/mL

## COC(=O)Cc1cccc(NC(=O)C2=C(C)NC(Nc3nc4ccccc4o3)=NC2c2ccccc2Cl)c1 (stereo not given)
[1]; read-out: IC50
  IC50: 13.7 µM
[2]
  half-life: 10.3 min
[3]
  Papp: < 17.4 ×10⁻⁶ cm/s
[4]
  solubility kinetic: < 1 µg/mL

## CC1=C(C(=O)Nc2cc(C(=O)O)ccn2)C(c2ccc(N3CCCC3)cc2Cl)N=C(Nc2nc3ccc(F)cc3o2)N1 (stereo not given)
[1]; read-out: IC50
  IC50: 10.9 µM
[2]
  half-life: > 30 min
[3]
  Papp: < 1 ×10⁻⁶ cm/s
[4]
  solubility kinetic: > 87 µg/mL

## CC1=C(C(=O)Nc2cc(-c3nn[nH]n3)ccn2)C(c2ccccc2Cl)N=C(Nc2nc3ccc(F)cc3o2)N1 (stereo not given)
[1]; read-out: IC50
  IC50: 7.69 µM
[2]
  half-life: > 30 min
[3]
  Papp: < 1 ×10⁻⁶ cm/s
[4]
  solubility kinetic: 29.9 µg/mL (≈ 54.9 µM)

## CC1=C(C(=O)Nc2nnc(-c3cccnc3)s2)C(c2ccccc2Cl)N=C(Nc2nc3ccc(Cl)cc3o2)N1 (stereo not given)
[1]
  IC50: Not Active
[2]
  half-life: > 30 min
[3]
  Papp: < 10.3 ×10⁻⁶ cm/s
[4]
  solubility kinetic: < 1 µg/mL
